Experimental data reported in patent US8389523B2, “Substituted quinoxaline and an agrochemical composition thereof” (Kumiai Chemical Industry Co., Ltd., priority 2007, dated 2013).

Key:
Format in all cases: in vivo
Set-up in all cases: scale not given here
[1] = test system: Echinochloa oryzicola Vasing; assay: Herbicidal effects in paddy field soil treatment (Test Example 1); settings: for Herbicidal effects index, Echinochloa oryzicola Vasing: paddy field soil treatment, 1000 g of the active ingredient per hectare, wettable powder added dropwise on water surface, 21st day after treatment
Summary of the method: (§1)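 Application rate was 1000 g active ingredient per hectare, delivered as a diluted wettable powder onto the surface of 3 cm flood water, the day after seeds were sown in paddy soil. Effects were rated 21 days later.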

[2] = test system: Monochoria vaginalis (Burm. f.) Presl var. plantaginea (Roxb.) Solms-Laub.; assay: as above; settings: for Herbicidal effects index, Monochoria vaginalis (Burm. f.) Presl var. plantaginea (Roxb.) Solms-Laub.: paddy field soil treatment, 1000 g of the active ingredient per hectare, wettable powder added dropwise on water surface, 21st day after treatment
Summary of the method: as §1

[3] = test system: Scirpus juncoides Roxb. var. ohwianus. T. Koyama; assay: as above; settings: for Herbicidal effects index, Scirpus juncoides Roxb. var. ohwianus. T. Koyama: paddy field soil treatment, 1000 g of the active ingredient per hectare, wettable powder added dropwise on water surface, 21st day after treatment
Summary of the method: as §1

[4] = test system: Abutilon theophrasti medicus; assay: Herbicidal effects in upland field soil treatment (Test Example 2); settings: 1000 g active ingredient per hectare, 21st day after treatment, criteria of Table 138
Summary of the method: (§2)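 A wettable powder formulation, diluted with water, is applied to the soil surface after sowing and covering seeds in upland field soil, at a rate of 1000 g active ingredient per hectare. After greenhouse growth, herbicidal activity is graded by criteria at 21 days.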

[5] = test system: Amaranthus viridis L.; assay: as above; settings: 1000 g active ingredient per hectare, 21st day after treatment, criteria of Table 138
Summary of the method: as §2

[6] = test system: Abutilon theophrasti medicus; assay: Herbicidal effects in upland field foliar treatment (Test Example 3); settings: criteria of Table 138; for herbicidal effect (index) on Abutilon theophrasti medicus: 1000 g active ingredient per hectare, 14th day after treatment; for herbicidal effects on Abutilon theophrasti medicus: 1000 g of the active ingredient per hectare, 14th day after the treatment, wettable powder
Summary of the method: (§3)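 Dose was 1000 g of active ingredient per hectare, sprayed as a wettable powder in water at a volume of 1000 L/ha onto foliage of two-week-old greenhouse-grown plants in upland soil. Damage was assessed against rating criteria on the 14th day.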

[7] = test system: Amaranthus viridis L.; assay: as above; settings: criteria of Table 138; for herbicidal effect (index) on Amaranthus viridis L.: 1000 g active ingredient per hectare, 14th day after treatment; for herbicidal effects on Amaranthus viridis L.: 1000 g of the active ingredient per hectare, 14th day after the treatment, wettable powder
Summary of the method: as §3

[8] = test system: Echinochloa crus-galli (L.) P. Beauv. var. crus-galli; assay: as above; settings: criteria of Table 138; for herbicidal effect (index) on Echinochloa crus-galli (L.) P. Beauv. var. crus-galli: 1000 g active ingredient per hectare, 14th day after treatment; for herbicidal effects on Echinochloa crus-galli (L.) P. Beauv. var. crus-galli: 1000 g of the active ingredient per hectare, 14th day after the treatment, wettable powder
Summary of the method: as §3

[9] = paddy field soil treatment (Test Example 1), criteria of Table 138

SMILES	Herbicidal effects index, Echinochloa oryzicola Vasing [1]	Herbicidal effects index, Monochoria vaginalis (Burm. f.) Presl var. plantaginea (Roxb.) Solms-Laub. [2]	Herbicidal effects index, Scirpus juncoides Roxb. var. ohwianus. T. Koyama [3]	herbicidal effect (index) on Abutilon theophrasti medicus [4]	herbicidal effect (index) on Amaranthus viridis L. [5]	herbicidal effect (index) on Abutilon theophrasti medicus [6]	herbicidal effect (index) on Amaranthus viridis L. [7]	herbicidal effect (index) on Echinochloa crus-galli (L.) P. Beauv. var. crus-galli [8]	herbicidal effects on Abutilon theophrasti medicus [6]	herbicidal effects on Amaranthus viridis L. [7]	herbicidal effects on Echinochloa crus-galli (L.) P. Beauv. var. crus-galli [8]	herbicidal effect (index) on Echinochloa oryzicola Vasing [1, 9]	herbicidal effect (index) on Monochoria vaginalis (Burm. f.) Presl var. plantaginea (Roxb.) Solms-Laub. [2, 9]	herbicidal effect (index) on Scirpus juncoides Roxb. var. ohwianus. T. Koyama [3, 9]
Cc1cnc(-n2c(=O)c(C(=O)C3=C(O)CCCC3=O)nc3ccccc32)s1 [I-380]	4	5	5	5	5	5	5	4						
Cn1c(=O)c(C(=O)C2=C(O)C3CCC(C3)C2=O)nc2cccnc21 (stereo not drawn) [III-5]	5	5	5	5	4				5	5	5			
Cn1c(=O)c(C(=O)C2=C(O)CCCC2=O)nc2ccc(F)cc21 [I-221]	5	5	5	5	5	5	5	4						
Cc1ccnc(-n2c(=O)c(C(=O)C3=C(O)CCCC3=O)nc3ccccc32)c1 [I-182]	5	5	5	5	5	5	5	5						
Cc1cccnc1-n1c(=O)c(C(=O)C2=C(O)CCCC2=O)nc2ccccc21 [I-272]	5	5	5	5	5	5	5	5						
O=C1CCCC(O)=C1C(=O)c1nc2c(Cl)cccc2n(-c2ccccc2)c1=O [II-190]	5	5	5	5	4				5	5	4			
O=C1CCCC(O)=C1C(=O)c1nc2cccnc2n(-c2cccc(OC(F)F)c2)c1=O [IV-90]				5	5				5	5	5	5	5	5
CCOc1ccc(-n2c(=O)c(C(=O)C3=C(O)CCCC3=O)nc3ccccc32)cc1 [II-69]	5	5	5	4	5				5	5	5			
CS(=O)(=O)c1ccc(-n2c(=O)c(C(=O)C3=C(O)CCCC3=O)nc3ccccc32)cc1 [II-125]	5	5	5	5	5				5	5	5			
O=C1CCCC(O)=C1C(=O)c1nc2cccnc2n(Cc2ccccc2)c1=O [III-107]	5	5	5	4	5				5	5	4			
Cc1cc(-n2c(=O)c(C(=O)C3=C(O)CCCC3=O)nc3ccccc32)nn1C [I-266]	5	5	5	5	5	5	5	5						
COc1cc(OC)cc(-n2c(=O)c(C(=O)C3=C(O)CCCC3=O)nc3ccccc32)c1 [II-173]	5	5	5	4	5				5	5	4			
O=C1CCCC(O)=C1C(=O)c1nc2cccnc2n(Cc2ccccc2F)c1=O [III-108]	5	5	5	5	5				5	5	5			
O=C1CCCC(O)=C1C(=O)c1nc2ccccc2n(-c2nccs2)c1=O [I-159]	5	5	5	5	5	5	5	4						
COCCOCn1c(=O)c(C(=O)C2=C(O)CCCC2=O)nc2ccccc21 [I-58]	5	5	5	5	5	5	5	5						
O=C1CCCC(O)=C1C(=O)c1nc2cccnc2n(Cc2ccccc2C(F)(F)F)c1=O [III-117]	5	5	5	5	5				5	5	5			
O=C1CCCC(O)=C1C(=O)c1nc2cccnc2n(-c2cccc(Br)c2)c1=O [IV-17]	5	5	5	5	5				5	5	5			
CC1(C)CCC(=O)C(C(=O)c2nc3cccnc3n(-c3cccc(C(F)(F)F)c3)c2=O)=C1O [IV-40]	5	5	5	5	5				5	5	5			
